Format in all cases: functional
One assay concerns Bacillus subtilis. The assay is described as follows: Antibacterial activity against Bacillus subtilis assessed as reduction in microbial growth after 24 hrs by two-fold dilution method.
In a further assay the test system is Staphylococcus aureus. The experiment in a line: Antibacterial activity against Staphylococcus aureus assessed as reduction in microbial growth after 24 hrs by two-fold dilution method.
Another assay deals with Candida albicans. The assay is described as follows: Antifungal activity against Candida albicans assessed as reduction in microbial growth after 3 days by two-fold dilution method.
Another assay concerns Escherichia coli. The experiment in a line: Antibacterial activity against Escherichia coli assessed as reduction in microbial growth after 24 hrs by two-fold dilution method.

As for `COc1cc2c(c(O)c1OC)CO[C@](C)(O)C2=O`, the MIC in the assay on Bacillus subtilis was above 256 mg/L; with Staphylococcus aureus, above 256 mg/L; in the assay with Candida albicans (72 h, time 3 day), 32 mg/L; in the assay on Escherichia coli, above 256 mg/L.
Take `C[C@@]12CC[C@@](O)(CO)[C@@H](C1)[C@]1(C)CCC[C@]21C`: the MIC in the assay with Bacillus subtilis is 32 mg/L; with Staphylococcus aureus it was 64 mg/L; in the assay on Candida albicans (72 h, time 3 day), above 256 mg/L; in the assay on Escherichia coli, 64 mg/L.
On to `C[C@]12CCC[C@@]1(C)[C@@H]1C[C@@]2(C)[C@H](O)C[C@@]1(O)CO`, for which the minimum inhibitory concentration (MIC) in the assay on Bacillus subtilis was 16 mg/L; in the assay on Staphylococcus aureus it was 32 mg/L; in the assay with Candida albicans (72 h, time 3 day), above 256 mg/L; in the assay with Escherichia coli, 2 mg/L.
For `C[C@@]12CC[C@@](O)(CO)[C@@H](C1)[C@@]1(C)CCC[C@@]21C`, the minimal inhibitory concentration (MIC) in the assay with Bacillus subtilis was 64 mg/L; with Staphylococcus aureus it was 64 mg/L; in the assay on Candida albicans (72 h, time 3 day), above 256 mg/L; in the assay with Escherichia coli it was 64 mg/L.
Turning to `C[C@@]12CC[C@@](O)(CO)[C@@H](C1)[C@]1(C)C[C@@H](O)C[C@]21C`, the MIC was 32 mg/L in the assay with Bacillus subtilis; 32 mg/L in the assay with Staphylococcus aureus; above 256 mg/L in the assay with Candida albicans (72 h, time 3 day); 4 mg/L in the assay with Escherichia coli.
As for `NC[C@H]1O[C@H](O[C@H]2[C@H](O)[C@@H](O[C@H]3O[C@H](CO)[C@@H](O)[C@H](N)[C@H]3O)[C@H](N)C[C@@H]2N)[C@H](O)[C@@H](O)[C@@H]1O` [KANAMYCIN], the MIC in the assay on Bacillus subtilis, in the assay with Staphylococcus aureus and in the assay with Escherichia coli was 1 mg/L each time.
For `C/C=C/C[C@H](CO)[C@H](O)[C@H](C)O`, the MIC was above 256 mg/L in the assay on Bacillus subtilis; above 256 mg/L in the assay on Staphylococcus aureus; 64 mg/L in the assay on Candida albicans (72 h, time 3 day); above 256 mg/L with Escherichia coli.
Take `C[C@@]12CC=C(CO)[C@@H](C1)[C@]1(C)CCC[C@]21C`: the MIC is 32 mg/L in the assay on Bacillus subtilis; 32 mg/L in the assay with Staphylococcus aureus; above 256 mg/L in the assay on Candida albicans (72 h, time 3 day); 64 mg/L with Escherichia coli.
Turning to `CC[C@H](O)[C@H](O)C[C@H](C)O`, the MIC in the assay with Bacillus subtilis is above 256 mg/L; with Staphylococcus aureus it was above 256 mg/L; with Candida albicans (72 h, time 3 day), 64 mg/L; in the assay with Escherichia coli, above 256 mg/L.
On to NYSTATIN, for which the minimal inhibitory concentration (MIC) with Candida albicans (time 3.0 day) came to 1 mg/L.
As for `C[C@H](C[C@@H](O)[C@H](O)C(C)(C)O)[C@H]1CC[C@@](C)(O)[C@@H](O)C1`, the MIC with Bacillus subtilis is 64 mg/L; in the assay on Staphylococcus aureus, 64 mg/L; in the assay with Candida albicans (72 h, time 3 day) it was above 256 mg/L; in the assay with Escherichia coli, 64 mg/L.

In general, MIC refers to the smallest concentration in the dilution series that meets the test's criterion for growth inhibition.

The values are drawn from ChEMBL document CHEMBL5120790, “Secondary Metabolites from Annulohypoxylon sp. and Structural Revision of Emericellins A and B” (2022).
